The values that follow come from patent publication US20140107109A1, “AMINO-DIHYDROTHIAZINE AND AMINO-DIOXIDO DIHYDROTHIAZINE COMPOUNDS AS BETA-SECRETASE ANTAGONISTS AND METHODS OF USE” (Amgen Inc., priority 2012, published 2014).

Where two headings read alike, the source gives them in different places.

For one assay, the target named is T1, Cathepsin D (Cat D) (Homo sapiens, UniProt P07339).
T1 construct: Recombinant Cat D was expressed in CHO cells; made in house; host or cells: CHO cells
As to the kind of experiment: In vitro enzymatic Cathepsin D (Cat D) FRET assay. As to conditions: read-out: CatD IC50. The format is biochemical. In a few lines:
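Recombinant Cat D expressed in CHO cells, used at 9 nM and pre-incubated one hour with serially diluted inhibitor in DMSO. Peptide substrate carries a fluorophore and quencher flanking the cleavage site; reaction stopped with Tris buffer raising pH to neutrality, then fluorescence read.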

For assay [1], the target named is Beta Secretase enzyme (BACE1) (Homo sapiens, UniProt P56817). As to the kind of experiment: In vitro enzymatic BACE FRET assay. Format: biochemical. The note with it: read-out: BACE1 FRET assay IC50. In a few lines:
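BACE1 cleavage of a 50 nM fluorophore/quencher peptide FRET substrate ran for one hour in 0.05 M acetate pH 4.2, 10% DMSO, 100 uM genapol. Tris buffer raised pH to neutrality to stop the reaction before fluorescence was read (excitation 488 nm, […]).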

The test system of assay [2] is Aβ40 in conditioned medium of cells stably expressing Amyloid Precursor Protein (APP). As to the kind of experiment: In vitro BACE cell-based assay (HEK cell assay), Aβ40 sandwich ELISA. The method in brief: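 APP-stably expressing cells (40K/well, grown 24 h in DMEM/10% FBS) were treated 24 h with compounds in 10-point dose response starting at 100 μM or 10 μM, 0.1% DMSO final. Secreted Aβ40 was measured by sandwich ELISA (pAb40 capture, biotinylated 6E10 detection, europium time-resolved fluorescence); IC50 from percent inhibition.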

[3] abbreviates: Homo sapiens, HEK293, average IC50, cell assay.
Setting [4] is: Homo sapiens, HEK293, average IC50, HEK cells.

Sequence of Beta Secretase enzyme (BACE1) (P56817 46-501): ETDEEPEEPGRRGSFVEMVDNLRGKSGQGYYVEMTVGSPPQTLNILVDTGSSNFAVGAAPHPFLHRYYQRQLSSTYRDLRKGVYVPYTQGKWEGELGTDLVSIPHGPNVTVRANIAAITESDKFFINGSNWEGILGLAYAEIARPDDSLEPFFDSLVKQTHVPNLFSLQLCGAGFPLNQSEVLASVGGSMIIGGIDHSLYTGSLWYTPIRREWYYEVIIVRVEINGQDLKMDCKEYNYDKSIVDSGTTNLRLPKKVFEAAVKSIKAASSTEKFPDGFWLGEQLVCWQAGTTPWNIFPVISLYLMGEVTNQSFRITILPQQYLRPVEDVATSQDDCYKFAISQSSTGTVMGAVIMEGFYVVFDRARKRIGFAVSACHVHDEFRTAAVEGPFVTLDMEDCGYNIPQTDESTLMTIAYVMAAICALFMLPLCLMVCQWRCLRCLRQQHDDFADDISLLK
T1 sequence (P07339 65-412, species assumed): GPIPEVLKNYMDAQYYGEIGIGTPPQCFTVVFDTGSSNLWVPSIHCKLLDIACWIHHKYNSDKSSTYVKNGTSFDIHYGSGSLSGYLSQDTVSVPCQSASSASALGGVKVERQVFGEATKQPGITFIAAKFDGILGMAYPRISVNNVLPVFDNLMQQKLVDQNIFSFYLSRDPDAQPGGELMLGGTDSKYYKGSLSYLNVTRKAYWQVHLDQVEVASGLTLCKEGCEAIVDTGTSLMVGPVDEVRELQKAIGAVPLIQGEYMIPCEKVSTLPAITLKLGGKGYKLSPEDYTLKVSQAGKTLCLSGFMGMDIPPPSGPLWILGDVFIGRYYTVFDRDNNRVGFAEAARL

A word on the IC50: it is the concentration needed to halve the response being measured. On to `CC1(C)C(N)=N[C@](C)(c2cc(Nc3nccc4nc(OCC(F)(F)F)cnc34)ccc2F)CS1(=O)=O` [Example 442, N-(3-((3R)-5-amino-3,6,6-trimethyl-1,1-dioxido-3,6-dihydro-2H-1,4-thiazin-3-yl)-4-fluorophenyl)-2-(2,2,2-trifluoroethoxy)pyrido[3,4-b]pyrazin-5-amine], for which the IC50 is 389 µM at Cathepsin D (Cat D); 0.00322 µM in assay [1] (average IC50, enzyme assay); 0.0319 µM in assay [2] (setting [3]).

For the molecule `CC1(C)C(N)=N[C@](C)(c2cc(Nc3nccc4nc(OCC#N)cnc34)ccc2F)CS1(=O)=O` [Example 443, ((5-((3-((3R)-5-amino-3,6,6-trimethyl-1,1-dioxido-3,6-dihydro-2H-1,4-thiazin-3-yl)-4-fluorophenyl)amino)pyrido[3,4-b]pyrazin-2-yl)oxy)acetonitrile], the IC50 at Cathepsin D (Cat D) worked out at 346 µM; in assay [1] (average IC50, enzyme assay), 0.00287 µM; in assay [2] (setting [3]) it was 0.004 µM.

As for `CC1(C)C(N)=N[C@](C)(c2cc(Nc3nccc4nc(OCC(F)F)cnc34)ccc2F)CS1(=O)=O` [Example 444, N-(3-((3R)-5-amino-3,6,6-trimethyl-1,1-dioxido-3,6-dihydro-2H-1,4-thiazin-3-yl)-4-fluorophenyl)-2-(2,2-difluoroethoxy)pyrido[3,4-b]pyrazin-5-amine], the IC50 on Cathepsin D (Cat D) turned out to be 242 µM; in assay [1] (average IC50, enzyme assay), 0.00454 µM; in assay [2] (setting [3]) it was 0.0083 µM.

Consider `CC#CCOc1cnc2c(Nc3ccc(F)c([C@]4(C)CS(=O)(=O)C(C)(C)C(N)=N4)c3)nccc2n1` [Example 445, N-(3-((3R)-5-amino-3,6,6-trimethyl-1,1-dioxido-3,6-dihydro-2H-1,4-thiazin-3-yl)-4-fluorophenyl)-2-(2-butyn-1-yloxy)pyrido[3,4-b]pyrazin-5-amine], for which the IC50 on Cathepsin D (Cat D) came out at 178 µM; in assay [1] (average IC50, enzyme assay), 0.00032 µM; in assay [2] (setting [3]), 0.0002 µM.

As for `CC1(C)C(N)=N[C@](C)(c2cc(Nc3cc(Cl)cc4cc(Cl)cnc34)ccc2F)CS1(=O)=O` [Example 446, N-(3-((3R)-5-amino-3,6,6-trimethyl-1,1-dioxido-3,6-dihydro-2H-1,4-thiazin-3-yl)-4-fluorophenyl)-3,6-dichloro-8-quinolinamine], the IC50 was 13.9 µM at Cathepsin D (Cat D); 0.0022 µM in assay [1] (average IC50, enzyme assay); 0.263 µM in assay [2] (setting [3]).

In the case of `COc1cnc2c(Nc3ccc(F)c([C@]4(CF)CS(=O)(=O)C(C)(C)C(N)=N4)c3)nccc2n1` [Example 447, N-(3-((3S)-5-amino-3-(fluoromethyl)-6,6-dimethyl-1,1-dioxido-3,6-dihydro-2H-1,4-thiazin-3-yl)-4-fluorophenyl)-2-methoxypyrido[3,4-b]pyrazin-5-amine], the IC50 on Cathepsin D (Cat D) was 1120 µM; in assay [1] (average IC50, enzyme assay), 0.00088 µM; in assay [2] (setting [3]), 0.0141 µM.

Consider `CC1(C)C(N)=N[C@](CF)(c2cc(Nc3nccc4cc(Cl)cnc34)ccc2F)CS1(=O)=O` [Example 448, N-(3-((3S)-5-amino-3-(fluoromethyl)-6,6-dimethyl-1,1-dioxido-3,6-dihydro-2H-1,4-thiazin-3-yl)-4-fluorophenyl)-3-chloro-1,7-naphthyridin-8-amine], for which the IC50 is 58.4 µM at Cathepsin D (Cat D); 0.00037 µM in assay [1] (average IC50, enzyme assay); 0.0285 µM in assay [2] (setting [3]).

With `CC1(C)C(N)=N[C@](CF)(c2cc(Nc3nncc4cc(Br)ccc34)ccc2F)CS1(=O)=O` [Example 449, N-(3-((3S)-5-amino-3-(fluoromethyl)-6,6-dimethyl-1,1-dioxido-3,6-dihydro-2H-1,4-thiazin-3-yl)-4-fluorophenyl)-6-bromo-1-phthalazinamine], the IC50 amounted to 375 µM on Cathepsin D (Cat D); 0.0302 µM in assay [1] (average IC50, enzyme assay); 0.159 µM in assay [2] (setting [3]).

As to `CC1(C)C(N)=N[C@](C)(c2cc(Nc3nncc4cc(Br)cnc34)ccc2F)CS1(=O)=O` [Example 451, N-(3-((3R)-5-amino-3,6,6-trimethyl-1,1-dioxido-3,6-dihydro-2H-1,4-thiazin-3-yl)-4-fluorophenyl)-3-bromopyrido[2,3-d]pyridazin-8-amine], the IC50 at Cathepsin D (Cat D) was determined as 104 µM; in assay [1] (average IC50, enzyme assay), 0.00068 µM; in assay [2] (setting [3]), 0.0006 µM.

With `CC1(C)C(N)=N[C@](C)(c2cc(NC(=O)c3ccc(Cl)cn3)c[nH]c2=O)CS1(=O)=O` [Example 452, N-(5-((3R)-5-amino-3,6,6-trimethyl-1,1-dioxido-3,6-dihydro-2H-1,4-thiazin-3-yl)-6-oxo-1,6-dihydro-3-pyridinyl)-5-chloro-2-pyridinecarboxamide], the IC50 worked out at 1870 µM on Cathepsin D (Cat D); 0.00704 µM in assay [1] (average IC50, enzyme assay); 0.0159 µM in assay [2] (setting [3]).

With `Cc1cc(OC(F)F)cnc1C(=O)Nc1cnc(F)c([C@]2(C)CS(=O)(=O)C3(CC3)C(N)=N2)c1` [Example 454, N-(5-((6R)-8-amino-6-methyl-4,4-dioxido-4-thia-7-azaspiro[2.5]oct-7-en-6-yl)-6-fluoro-3-pyridinyl)-5-(difluoromethoxy)-3-methyl-2-pyridinecarboxamide], the IC50 at Cathepsin D (Cat D) is 106 µM; in assay [1] (average IC50), 0.0031 µM; in assay [2] (setting [4]), 0.0039 µM.

As for `C[C@@]1(c2cc(Br)cnc2F)CS(=O)(=O)C2(CC2)C(N)=N1` [Example 455, (6R)-6-(5-bromo-2-fluoro-3-pyridinyl)-6-methyl-4-thia-7-azaspiro[2.5]oct-7-en-8-amine 4,4-dioxide], the IC50 on Cathepsin D (Cat D) was 100 µM; in assay [1] (average IC50) it was 12.5 µM; in assay [2] (setting [4]), over 15.6 µM.

With `CC1(C)C(N)=N[C@](CF)(c2cc(N)ccc2F)CS1(=O)=O` [Example 456, (5S)-5-(5-amino-2-fluorophenyl)-5-(fluoromethyl)-2,2-dimethyl-5,6-dihydro-2H-1,4-thiazin-3-amine 1,1-dioxide], the IC50 is 228 µM on Cathepsin D (Cat D), 2.53 µM in assay [1] (average IC50) and over 15.6 µM in assay [2] (setting [4]).

`COc1ccc(C(=O)Nc2ccc(F)c([C@]3(CF)CS(=O)(=O)C(C)(C)C(N)=N3)c2)nc1` [Example 457, N-(3-((3S)-5-amino-3-(fluoromethyl)-6,6-dimethyl-1,1-dioxido-3,6-dihydro-2H-1,4-thiazin-3-yl)-4-fluorophenyl)-5-methoxy-2-pyridinecarboxamide]: the figures for the IC50 (on Cathepsin D (Cat D); in assay [1] (average IC50); in assay [2] (setting [4])) were 812 µM, 0.00065 µM and 0.0129 µM, respectively.

As for `COCc1cc(Cl)cnc1C(=O)Nc1ccc(F)c([C@]2(CF)CS(=O)(=O)C(C)(C)C(N)=N2)c1` [Example 458, N-(3-((3S)-5-amino-3-(fluoromethyl)-6,6-dimethyl-1,1-dioxido-3,6-dihydro-2H-1,4-thiazin-3-yl)-4-fluorophenyl)-5-chloro-3-(methoxymethyl)-2-pyridinecarboxamide], the values for the IC50 (on Cathepsin D (Cat D); in assay [1] (average IC50); in assay [2] (setting [4])) were 499 µM, 0.0009 µM and 0.0239 µM, respectively.

Regarding `CC1[C@@](C)(c2cc(Br)ccc2F)N=C(N)[C@](C)(F)S1(=O)=O` (stereo partly drawn) [Example 459, (2R,5R)-5-(5-bromo-2-fluorophenyl)-2-fluoro-2,5,6-trimethyl-5,6-dihydro-2H-1,4-thiazin-3-amine 1,1-dioxide], the IC50 on Cathepsin D (Cat D) is over 400 µM; in assay [1] (average IC50), 2.3 µM; in assay [2] (setting [4]), 5.47 µM.

Take “N-(3-((4aR,7aR)-3-amino-2,2-dimethyl-1,1-dioxido-7,7a-dihydro-2H-furo[3,4-b][1,4]thiazin-4a(5H)-yl)-4-fluorophenyl)-5-(difluoromethoxy)-3-methyl-2-pyridinecarboxamide, N-(3-((4aS,7aS)-3-amino-2,2-dimethyl-1,1-dioxido-7,7a-dihydro-2H-furo[3,4-b][1,4]thiazin-4a(5H)-yl)-4-fluorophenyl)-5-(difluoromethoxy)-3-methyl-2-pyridinecarboxamide [Example 413]”: the results for the IC50 (at Cathepsin D (Cat D); in assay [1]; in assay [2]) were 111 µM, 0.00265 µM and 0.0103 µM, respectively.

For “N-(3-((4aR,7aS)-3-amino-2,2-dimethyl-1,1-dioxido-7,7a-dihydro-2H-furo[3,4-b][1,4]thiazin-4a(5H)-yl)-4-fluorophenyl)-3-chloro-1,7-naphthyridin-8-amine, N-(3-((4aS,7aR)-3-amino-2,2-dimethyl-1,1-dioxido-7,7a-dihydro-2H-furo[3,4-b][1,4]thiazin-4a(5H)-yl)-4-fluorophenyl)-3-chloro-1,7-naphthyridin-8-amine [Example 429]”, the IC50 on Cathepsin D (Cat D) was 131 µM; in assay [1] (average IC50, enzyme assay), 0.0046 µM; in assay [2] (average IC50, cell assay), 0.157 µM.

For “N-(3-((4aR,7aS)-3-amino-2,2-dimethyl-1,1-dioxido-7,7a-dihydro-2H-furo[3,4-b][1,4]thiazin-4a(5H)-yl)-4-fluorophenyl)-5-chloro-2-pyridinecarboxamide, N-(3-((4aS,7aR)-3-amino-2,2-dimethyl-1,1-dioxido-7,7a-dihydro-2H-furo[3,4-b][1,4]thiazin-4a(5H)-yl)-4-fluorophenyl)-5-chloro-2-pyridinecarboxamide [Example 426]”, the IC50 is 170 µM on Cathepsin D (Cat D); 0.0015 µM in assay [1] (average IC50, enzyme assay); 0.0136 µM in assay [2] (average IC50, cell assay).
